Consider 25 compounds from US20250171460A1, “INDUCERS OF KLF2 AND METHODS OF USE THEREOF” (Riparian Pharmaceuticals, Inc., priority 2022, published 2025).

SMILES strings stand for the structures.

The subject of the first test is primary human endothelial cells expressing luciferase under the control of the KLF2 promoter. Nature of the test: KLF2 Induction Cell Based Bioassay (luciferase reporter). The settings on record: Bioactivity of stereoisomers: S isomer. From the text: In endothelial cell culture media, a stock of the highest working concentration was made at no more than 1% DMSO vehicle. The working stock was then serially diluted 1:2 to make an 11-point concentration response curve. Included in the 96-well plate were 2 reference compounds with known potencies. A DMSO column was included in the 96-well plate at the highest percent vehicle of the working stocks. The 96-well cell culture plate of primary human endothelial cells expressing luciferase under the control of the KLF2 promoter was dosed with 200 μL per well of the dilution series as well as the DMSO control column. The assay plate was incubated at 37° C. for 24 hours. The supernatant was collected at 24 hours.
20 μL of the supernatant was then placed in a 384-well plate with optical duplicates. The corners of the plate received 20 μL of the Gaussia Luciferase Enzyme positive control, as well as 20 μL of the 50 μM Coelenterizine substrate. The plate read is then calibrated using the control, and read using a Molecular Devices SpectraMax iD5, providing luminescence in relative light units (RLU). The plate reader injected 20 μL of the 50 μM Coelenterizine substrate immediately before taking the RLU measurement for each well.
The sample signals were then normalized to the average signal of the DMSO column, as well as to the maximum signal of one of the reference compounds, as shown in the equations below: […]
The EC50 of each compound is then defined as when the concentration response curve passes 0.5.
As for `COCCN1C(=O)c2oc3cc(C(=O)NC4(C)COC4)ccc3c2OC[C@@]1(C)C(=O)NCc1c(F)cccc1OC` [Example 135], the “Bioactivity Bucket, S” value is “inactive”.
Still for that read-out and setting: the value for `COCCOCCn1cc(CCN2C(=O)c3oc4ccccc4c3OC[C@@]2(C)C(=O)NCc2ccccc2OC)nn1` [Example 136] was “inactive”; that for `C#CCCN1C(=O)c2oc3ccccc3c2OC[C@@]1(C)C(=O)NCc1ccccc1OC` [Example 138] was “inactive”.

The test is the same for the next values; noted with them: Homo sapiens, Endothelial cell, 24 h, KLF2 promoter luciferase, 24 hours, 11-point concentration response; read-out: Activity Range (EC50).
As for `COc1cccc(F)c1CNC(=O)C1(C)COc2c(oc3ccc(F)cc23)C(=O)N1CC(=O)N(C)CCO` (centres unmarked) [Example 111, 9-fluoro-N-(2-fluoro-6-methoxybenzyl)-4-(2-((2-hydroxyethyl)(methyl)amino)-2-oxoethyl)-3-methyl-5-oxo-2,3,4,5-tetrahydrobenzofuro[2,3-f][1,4]oxazepine-3-carboxamide], the EC50 was in the range of 51 to 500 nM.
Regarding `COc1cccc(F)c1CNC(=O)C1(C)COc2c(oc3ccc(F)cc23)C(=O)N1CC(=O)N(C)C` (centres unmarked) [Example 112, 4-(2-(dimethylamino)-2-oxoethyl)-9-fluoro-N-(2-fluoro-6-methoxybenzyl)-3-methyl-5-oxo-2,3,4,5-tetrahydrobenzofuro[2,3-f][1,4]oxazepine-3-carboxamide], the EC50 lay within 51 to 500 nM.
With `COc1ccccc1CNC(=O)C1(C)COc2c(oc3ccc(F)cc23)C(=O)N1CC(=O)C1CC1` (centres unmarked) [Example 113, 4-(2-cyclopropyl-2-oxoethyl)-9-fluoro-N-(2-methoxybenzyl)-3-methyl-5-oxo-2,3,4,5-tetrahydrobenzofuro[2,3-f][1,4]oxazepine-3-carboxamide], the EC50 lay within 51 to 500 nM.
With `[2H]C([2H])([2H])N(C(=O)CN1C(=O)c2oc3ccc(F)cc3c2OC[C@]1(C)C(=O)NCc1c(F)cccc1OC)C([2H])([2H])[2H]` [Example 114, (R)-4-(2-(bis(methyl-d3)amino)-2-oxoethyl)-9-fluoro-N-(2-fluoro-6-methoxybenzyl)-3-methyl-5-oxo-2,3,4,5-tetrahydrobenzofuro[2,3-f][1,4]oxazepine-3-carboxamide], the EC50 was in the range of 51 to 500 nM.
For `COc1cccnc1CNC(=O)[C@@]1(C)COc2c(oc3ccc(F)cc23)C(=O)N1CC(=O)N1CC(F)C1` [Example 115], the EC50 lay in the range of 51 to 500 nM.
Regarding `COc1cccnc1CNC(=O)[C@@]1(C)COc2c(oc3ccc(F)cc23)C(=O)N1CC(=O)N1CC(F)(F)C1` [Example 116], the EC50 is 51 to 500 nM.
As to `COc1cccc(F)c1CNC(=O)[C@@]1(C)COc2c(oc3ccc(F)cc23)C(=O)N1CC(=O)N1CC[C@H]1CO` [Example 117], the EC50 was in the range of 51 to 500 nM.
Turning to `COc1cccc(F)c1CNC(=O)[C@@]1(C)COc2c(oc3ccc(F)cc23)C(=O)N1Cc1nnn(CCO)n1` [Example 118], the EC50 was 51 to 500 nM.
With `COc1ccc(F)cc1CNC(=O)[C@@]1(C)COc2c(oc3ccc(F)cc23)C(=O)N1Cc1nnn(CCO)n1` [Example 119], the EC50 was 51 to 500 nM.
`COc1cccnc1CNC(=O)[C@@]1(C)COc2c(oc3ccc(F)cc23)C(=O)N1Cc1cn(CCO)nn1` [Example 120, (R)-9-fluoro-4-((1-(2-hydroxyethyl)-1H-1,2,3-triazol-4-yl)methyl)-N-((3-methoxypyridin-2-yl)methyl)-3-methyl-5-oxo-2,3,4,5-tetrahydrobenzofuro[2,3-f][1,4]oxazepine-3-carboxamide]: the EC50 fell in the range of 51 to 500 nM.
As for `COc1ccccc1CNC(=O)C1(C)COc2c(oc3cc(C(=O)NC4(C)COC4)cnc23)C(=O)N1CC(=O)N(C)C` (centres unmarked) [Example 121, 4-(2-(dimethylamino)-2-oxoethyl)-N3-(2-methoxybenzyl)-3-methyl-N8-(3-methyloxetan-3-yl)-5-oxo-2,3,4,5-tetrahydropyrido[2′,3′:4,5]furo[2,3-f][1,4]oxazepine-3,8-dicarboxamide], the EC50 lay in the range of 51 to 500 nM.
Regarding `COCCN1C(=O)c2oc3cc(C(=O)NC4(C)COC4)cnc3c2OCC1(C)C(=O)NCc1ccccc1OC` (centres unmarked) [Example 122], the EC50 was in the range of 51 to 500 nM.
Same read-out and setting: next, `COCCN1C(=O)c2oc3cc(C(=O)NC4(C)COC4)cnc3c2OCC1(C)C(=O)NCc1c(Cl)cccc1OC` (centres unmarked) [Example 123]: 51 to 500 nM; `COc1cccc(F)c1CNC(=O)C1(C)COc2c(oc3cc(-c4ncco4)cnc23)C(=O)N1CC(=O)N(C)C` (centres unmarked) [Example 124, 4-(2-(dimethylamino)-2-oxoethyl)-N-(2-fluoro-6-methoxybenzyl)-3-methyl-8-(oxazol-2-yl)-5-oxo-2,3,4,5-tetrahydropyrido[2′,3′:4,5]furo[2,3-f][1,4]oxazepine-3-carboxamide]: 51 to 500 nM.
Regarding `COc1cccnc1CNC(=O)[C@@]1(C)COc2c(oc3cc(-c4ncco4)ccc23)C(=O)N1CC(=O)N(C)C` [Example 125, (R)-4-(2-(dimethylamino)-2-oxoethyl)-N-((3-methoxypyridin-2-yl)methyl)-3-methyl-8-(oxazol-2-yl)-5-oxo-2,3,4,5-tetrahydrobenzofuro[2,3-f][1,4]oxazepine-3-carboxamide], the EC50 is ≤ 50 nM.
Regarding `[2H]C([2H])([2H])N(C(=O)CN1C(=O)c2oc3cc(-c4nc(C(F)(F)F)cs4)ccc3c2OC[C@]1(C)C(=O)NCc1ncccc1OC)C([2H])([2H])[2H]` [Example 126], the EC50 is ≤ 50 nM.
On the same count and under the same terms, the value for `[2H]C([2H])([2H])N(C(=O)CN1C(=O)c2oc3cc(-c4ncco4)ccc3c2OC[C@]1(C)C(=O)NCc1ncccc1OC)C([2H])([2H])[2H]` [Example 127] was ≤ 50 nM.
Regarding `COc1cccnc1CNC(=O)[C@@]1(C)COc2c(oc3cc(-c4nc(C(F)(F)F)cs4)ccc23)C(=O)N1CC(=O)N(C)C` [Example 128], the EC50 is ≤ 50 nM.
Consider `COc1cccnc1CNC(=O)[C@@]1(C)COc2c(oc3cc(-c4nc(C#N)co4)ccc23)C(=O)N1CC(=O)N(C)C` [Example 129, (R)-8-(4-cyanooxazol-2-yl)-4-(2-(dimethylamino)-2-oxoethyl)-N-((3-methoxypyridin-2-yl)methyl)-3-methyl-5-oxo-2,3,4,5-tetrahydrobenzofuro[2,3-f][1,4]oxazepine-3-carboxamide], for which the EC50 was ≤ 50 nM.
For the compound `COc1cccc(F)c1CNC(=O)C1(C)COc2c(oc3ccc(C(F)(F)F)cc23)C(=O)N1CC(=O)N(C)C` (centres unmarked) [Example 131, 4-(2-(dimethylamino)-2-oxoethyl)-N-(2-fluoro-6-methoxybenzyl)-3-methyl-5-oxo-9-(trifluoromethyl)-2,3,4,5-tetrahydrobenzofuro[2,3-f][1,4]oxazepine-3-carboxamide], the EC50 fell in the range of 51 to 500 nM.
Still for that read-out and setting: next, `COc1cccc(F)c1CNC(=O)C1(C)COc2c(oc3ccc(C)cc23)C(=O)N1CC(=O)N(C)C` (centres unmarked) [Example 133, 4-(2-(dimethylamino)-2-oxoethyl)-N-(2-fluoro-6-methoxybenzyl)-3,9-dimethyl-5-oxo-2,3,4,5-tetrahydrobenzofuro[2,3-f][1,4]oxazepine-3-carboxamide]: 51 to 500 nM.
With `COc1cccc(F)c1CNC(=O)[C@@]1(C)COc2c(oc3cc(C(F)(F)F)cnc23)C(=O)N1CC(=O)N(C)C` [Example 134, (R)-4-(2-(dimethylamino)-2-oxoethyl)-N-(2-fluoro-6-methoxybenzyl)-3-methyl-5-oxo-8-(trifluoromethyl)-2,3,4,5-tetrahydropyrido[2′,3′:4,5]furo[2,3-f][1,4]oxazepine-3-carboxamide], the EC50 lay within 51 to 500 nM.

The same test, now with this note: Homo sapiens, Endothelial cell, Bioactivity of stereoisomers: R isomer; read-out: Bioactivity Bucket, R.
In the case of `COc1cccnc1CNC(=O)[C@@]1(C)COc2c(oc3cc(-c4nc(C#N)co4)ccc23)C(=O)N1CC(=O)N(C)C` [Example 129, (R)-8-(4-cyanooxazol-2-yl)-4-(2-(dimethylamino)-2-oxoethyl)-N-((3-methoxypyridin-2-yl)methyl)-3-methyl-5-oxo-2,3,4,5-tetrahydrobenzofuro[2,3-f][1,4]oxazepine-3-carboxamide], the EC50 is ≤ 50 nM.
